Measurements reported in patent US9926267B2, “Covalent inhibitors of K-Ras G12C” (Araxes Pharma LLC, priority 2013, dated 2018).

Target: T1, KRAS G12C 1-169, his-tagged protein, GDP-loaded (Homo sapiens, UniProt P01116, G12C)
T1 construct: KRAS G12C 1-169, his-tagged protein, GDP-loaded
Assay: Biochemical assay: covalent binding to KRAS G12C, measured by mass spectrometry
Procedure: Test compounds were prepared as 10 mM stock solutions in DMSO (Fisher cat#BP-231-100). KRAS G12C 1-169, his-tagged protein, GDP-loaded was diluted to 2 μm in buffer (20 mM Hepes, 150 mM NaCl, 1 mM MgCl2). Compounds were tested for activity as follows:
Compounds were diluted to 50× final test concentration in DMSO in 96-well storage plates. Compound stock solutions were vortexed before use and observed carefully for any sign of precipitation. Dilutions were as follow: • For 100 μM final compound concentration, compounds were diluted to 5000 μM (5 μl 10 mM compound stock+5 μl DMSO and mixed well by pipetting. • For 30 μM final compound concentration, compounds were diluted to 1500 μM (3 μl 10 mM compound stock+17 μl DMSO) and mixed well by pipetting. • For […] final compound concentration, compounds were diluted to 500 μM (2 μl 10 mM compound stock+38 μl DMSO) and mixed well by pipetting. 49 μl of the stock protein solution was added to each well of a 96-well PCR plate (Fisher cat#1423027). 1 μl of the diluted 50× compounds were added to appropriate wells in the PCR plate using 12-channel pipettor. Reactions were mixed carefully and thoroughly by pipetting up/down with a 200 μl multi-channel pipettor. The plate was sealed well with aluminum plate seal, and stored in a drawer at room temperature for 2 hrs or 24 hrs. 5 μl of 2% formic acid (Fisher cat#A117) in DI H2O was then added to each well followed by mixing with a pipette. The plate was then resealed with aluminum seal and stored on dry ice until analyzed as described below.
The above described assays were analyzed by mass spectrometry according to the following procedure:
The MS instrument is set to positive polarity, 2 GHz resolution, and low mass (1700) mode and allowed to equilibrate for 30 minutes. The instrument is then calibrated, switched to acquisition mode and the appropriate method loaded.
After another 30 minute equilibration time, a blank batch (i.e., buffer) is run to ensure equipment is operating properly. The samples are thawed at 37° C. for 10 minutes, briefly centrifuged, and transfer to the bench top. Wells A1 and H12 are spiked with 1 uL 500 uM internal standard peptide, and the plates centrifuged at 2000×g for 5 minutes. The method is then run and masses of each individual well recorded.
The masses (for which integration data is desired) for each well are pasted into the platemap and exported from the analysis. Masses for the internal standards are exported as well. The data at 50 ppm is extracted for the +19 charge state, and identity of well A1 is assigned using the internal standard spike and integrated. Peak data is exported as a TOF list and the above steps are repeated individually, for the +20, 21, 22, 23, 24, and charge states.

[1] = Binding activity determined at 24 hrs, Table 8a
[2] = Binding activity determined at 2 hrs, Table 8b

T1 sequence (P01116 1-169 isoform P01116-2 G12C): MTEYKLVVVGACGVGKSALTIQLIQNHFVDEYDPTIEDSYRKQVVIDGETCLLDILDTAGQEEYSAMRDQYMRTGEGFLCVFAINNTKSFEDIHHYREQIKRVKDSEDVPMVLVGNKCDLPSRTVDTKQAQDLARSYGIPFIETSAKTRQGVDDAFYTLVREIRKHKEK

| Compound | Binding % [1] | other results |
| --- | --- | --- |
| C=CC(=O)N1CCN(C(=O)c2cc(-c3ccccc3Cl)ccc2O)CC1 [VI-26, 1-(4-(2′-chloro-4-hydroxybiphenyl-carbonyl)piperazin-1-yl)prop-2-en-1-one] | ++ (++ indicates binding activity greater than 10% and up to 20%) |  |
| C=CC(=O)N1CCN(C(=O)c2cc(-c3cc(Cl)ccc3Cl)c(Cl)cc2OC)CC1 [VI-5, 1-(4-(2′,5′,6-trichloro-4-methoxybiphenyl-carbonyl)piperazin-1-yl)prop-2-en-1-one] | ++++ (++++ indicates binding activity greater than 30%) |  |
| C=CC(=O)N1CCN(C(=O)c2cc(-c3cc(Cl)ccc3Cl)c(Cl)cc2O)CC1C#N (stereo not drawn) [VI-38, 1-acryloyl-4-(2′,5′,6-trichloro-4-hydroxybiphenyl-carbonyl)piperazine-2-carbonitrile] |  | Binding % [2]: ++ (++ indicates binding activity greater than 20%) |
| C=CC(=O)N1CCN(C(=O)c2cc(-c3ccccc3Cl)c(C)[nH]2)CC1 [VI-23, 1-(4-(4-(2-chlorophenyl)-5-methyl-1H-pyrrole-2-carbonyl)piperazin-1-yl)prop-2-en-1-one] | +++ (+++ indicates binding activity greater than 20% and up to 30%) |  |
| C=CC(=O)N1CCN(C(=O)c2cc(-c3cc(F)ccc3Cl)c(Cl)cc2OC)CC1 [VI-4, 1-(4-(2′,6-dichloro-5′-fluoro-4-methoxybiphenyl-carbonyl)piperazin-1-yl)prop-2-en-1-one] | ++ (++ indicates binding activity greater than 10% and up to 20%) |  |
| C=CC(=O)N1CCN(C(=O)c2cc(O)cc(-c3ccccc3Cl)c2)CC1 [VI-25, 1-(4-(2′-Chloro-5-hydroxy-[1,1′-biphenyl]-3-carbonyl)piperazin-1-yl)prop-2-en-1-one] | +++ (+++ indicates binding activity greater than 20% and up to 30%) |  |
| C=CC(=O)N1CC(NC(=O)c2cc(-c3ccccc3Cl)[nH]n2)C1 [VI-14, N-(1-acryloylazetidin-3-yl)-3-(2-chlorophenyl)-1H-pyrazole-5-carboxamide] | + (+ indicates binding activity from 5% to 10%) |  |
| C=CC(=O)N1CCN(C(=O)c2cc(Br)c(Cl)cc2O)CC1 [VI-9, 1-(4-(5-bromo-4-chloro-2-hydroxybenzoyl)piperazin-1-yl)prop-2-en-1-one] | + (+ indicates binding activity from 5% to 10%) |  |
| C=CC(=O)N1CCN(C(=O)c2cc(Cl)c(-c3ccccc3Cl)cc2O)CC1 [VI-41, 1-(4-(2,2′-dichloro-5-hydroxybiphenyl-carbonyl)piperazin-1-yl)prop-2-en-1-one] |  | Binding % [2]: + (+ indicates binding activity from 5% to 20%) |
| C=CS(=O)(=O)NC1CCN(C(=O)c2ccc(Cl)c(Cl)c2)CC1 [VI-33, N-(1-(3,4-dichlorobenzoyl)piperidin-4-yl)ethenesulfonamide] | + (+ indicates binding activity from 5% to 10%) |  |
| C=CC(=O)NC1CN(C(=O)c2cc(-c3ccccc3Cl)[nH]n2)C1 [VI-15, N-(1-(3-(2-chlorophenyl)-1H-pyrazole-5-carbonyl)azetidin-3-yl)acrylamide] | + (+ indicates binding activity from 5% to 10%) |  |
| C=CC(=O)N1CCN(C2CCN(C(=O)CNc3cc(Cl)c(Cl)cc3O)C2)CC1 (stereo not drawn) [Compound V-4, 1-(4-(1-(2-(4,5-dichloro-2-hydroxyphenyl-amino)acetyl)pyrrolidin-3-yl)piperazin-1-yl)prop-2-en-1-one] |  | Binding % (Binding activity determined at 24 hrs, Table 7a): +++ (+++ indicates binding activity greater than 25% and up to 50%) |
